Data reported in patent EP1258532A1, “Thermostable D-hydantoinase from Bacillus circulans and the application thereof” (NATIONAL SCIENCE COUNCIL, priority 2001, dated 2002).

Tests used:
D-hydantoinase [1] = test: Effects of metal ions on D-hydantoinase activity; type: biochemical, Bacillus circulans; conditions: ion 500 µM; for Specific activity: 15 min at room temperature, substrate 10 mM D,L-p-HPH in 50 mM Tris-HCl (pH 8.0); for Relative activity: activity percentage based on that without adding ions
Method: Various divalent metal ions (as set forth in Table 1 below) were added to the vector pQE-bcidht in E. coli NovaBlue, crude extracts thereof or the purified D-hydantoinase of the present invention at 500 µM concentration. After 15 minutes of incubation at room temperature, 10 mM substrate of D,L-p-HPH (dissolved in 50 mM Tris-HCl (pH 8.0)) was added. The specific activity of the enzyme was then measured.

D-hydantoinase [2] = test: Effects of H2O2, NaCl and NH4Cl on D-hydantoinase activity; type: biochemical, Bacillus circulans; conditions: in the presence of 0.8 M H2O2; 25°C for 10 min, residual H2O2 removed with catalase; 800000 µM
Method: The vector pQE-bcidht in E. coli NovaBlue, crude extracts thereof or the purified D-hydantoinase of the present invention was incubated at 25°C for 10 min. Afterwards, the catalase was added to the solution to remove residual H2O2, and then the enzyme activity was measured. In addition, various concentrations of NaCl and NH4Cl were added to the solution containing D-hydantoinase. The solution was incubated at room temperature for 10 min, and the enzyme activity was measured.

Row | Substance | Specific activity (D-hydantoinase [1]) [unit/mg] | Relative activity (D-hydantoinase [1]; 15 min) [%] | retained enzyme activity (D-hydantoinase [2]) [%] | Relative activity (D-hydantoinase [1]) [%] | inhibition of D-hydantoinase activity (D-hydantoinase [1]; substrate 10 mM D,L-p-HPH) [%]
1 | FeSO2 | 2.52 | 87.5 |  |  | 
2 | H2O2 |  |  | 85 |  | 
3 | MgSO4 | 2.69 |  |  | 94 | 
4 | NiSO4 | 4.00 |  |  | 139 | 
5 | ZnSO4 | 1.44 |  |  | 50 | 50
